Test results: ChEMBL document CHEMBL1909294, “Translating clinical findings into knowledge in drug safety evaluation--drug induced liver injury prediction system (DILIps)” (PLoS Comput Biol, 2011)
*1 amine or outer side, *2 acyl side, *3 side chain or, on linkers, in order; H or OH if unused. Where a SMILES comes first, the peptide text is derived from it. Bridges are numbered along the chain shown (N, C = ends). [ ]: non-standard residue; d: D form. The star is where a group is joined. ξ: configuration not given here. X2 = N=C1NCCC([C@H](N[*:1])C(=O)[*:2])N1; ΔAla(Z-3-ureido) = NC(=O)N/C=C(\N)C(=O)O; ξβ3hOrn = NCCCC(N)CC(=O)*; Dap = NC[C@H](N)C(=O)O

Columns and labels:
Hepatotoxicity [1] = system: Hepatotoxicity;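 on HepSE bilirubinemia: bilirubinemia hepatic side effect score drawn from the DILIps training data, a prediction system for drug-induced liver injury; call rule not given here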;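 on HepSE cholecystitis: Cholecystitis-related hepatic side effect score drawn from the DILIps (drug-induced liver injury prediction) training data set; call rule not given here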;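 on HepSE cholelithiasis: hepatic side effect score for cholelithiasis, drawn from the DILIps training data for predicting drug-induced liver injury; call rule not given here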;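 on HepSE cirrhosis: cirrhosis hepatic side effect score taken from the DILIps (drug-induced liver injury prediction) training set; call rule not given here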;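 on HepSE elevated liver function tests: hepatic side effect score for raised liver function tests, as recorded in the DILIps training set used for predicting drug-induced liver injury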; on HepSE hepatic failure: call rule not given here;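 on HepSE hepatomegaly: hepatic side effect score for hepatomegaly, taken from the training set of the DILIps drug-induced liver injury prediction system; call rule not given here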
Hepatotoxicity [2] = system: Hepatotoxicity; remark: listed apart in the source;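 on HepSE bilirubinemia: bilirubinemia hepatic side effect score drawn from the DILIps training data, a prediction system for drug-induced liver injury; call rule not given here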;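 on HepSE cholecystitis: Cholecystitis-related hepatic side effect score drawn from the DILIps (drug-induced liver injury prediction) training data set; call rule not given here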;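 on HepSE cholelithiasis: hepatic side effect score for cholelithiasis, drawn from the DILIps training data for predicting drug-induced liver injury; call rule not given here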;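 on HepSE cirrhosis: cirrhosis hepatic side effect score taken from the DILIps (drug-induced liver injury prediction) training set; call rule not given here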;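 on HepSE elevated liver function tests: hepatic side effect score for raised liver function tests, as recorded in the DILIps training set used for predicting drug-induced liver injury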; on HepSE hepatic failure: call rule not given here;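 on HepSE hepatomegaly: hepatic side effect score for hepatomegaly, taken from the training set of the DILIps drug-induced liver injury prediction system; call rule not given here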
Hepatotoxicity [3] = system: Hepatotoxicity; remark: listed apart in the source;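 on HepSE bilirubinemia: bilirubinemia hepatic side effect score drawn from the DILIps training data, a prediction system for drug-induced liver injury; call rule not given here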;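 on HepSE cholecystitis: Cholecystitis-related hepatic side effect score drawn from the DILIps (drug-induced liver injury prediction) training data set; call rule not given here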;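 on HepSE cholelithiasis: hepatic side effect score for cholelithiasis, drawn from the DILIps training data for predicting drug-induced liver injury; call rule not given here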;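 on HepSE cirrhosis: cirrhosis hepatic side effect score taken from the DILIps (drug-induced liver injury prediction) training set; call rule not given here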;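 on HepSE elevated liver function tests: hepatic side effect score for raised liver function tests, as recorded in the DILIps training set used for predicting drug-induced liver injury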; on HepSE hepatic failure: call rule not given here
Hepatotoxicity [4] = system: Hepatotoxicity; remark: listed apart in the source;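 on HepSE bilirubinemia: bilirubinemia hepatic side effect score drawn from the DILIps training data, a prediction system for drug-induced liver injury; call rule not given here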;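 on HepSE cholecystitis: Cholecystitis-related hepatic side effect score drawn from the DILIps (drug-induced liver injury prediction) training data set; call rule not given here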;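 on HepSE cholelithiasis: hepatic side effect score for cholelithiasis, drawn from the DILIps training data for predicting drug-induced liver injury; call rule not given here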;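 on HepSE cirrhosis: cirrhosis hepatic side effect score taken from the DILIps (drug-induced liver injury prediction) training set; call rule not given here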;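 on HepSE elevated liver function tests: hepatic side effect score for raised liver function tests, as recorded in the DILIps training set used for predicting drug-induced liver injury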; on HepSE hepatic failure: call rule not given here
Hepatotoxicity [5] = system: Hepatotoxicity; remark: listed apart in the source; on HepSE hepatic failure: call rule not given here
Hepatotoxicity [6] = system: Hepatotoxicity; remark: listed apart in the source; on HepSE hepatic failure: call rule not given here
Hepatotoxicity [7] = system: Hepatotoxicity; remark: listed apart in the source
Hepatotoxicity [8] = system: Hepatotoxicity; remark: listed apart in the source
Hepatotoxicity [9] = system: Hepatotoxicity; remark: listed apart in the source
Hepatotoxicity [10] = system: Hepatotoxicity; remark: listed apart in the source
Hepatotoxicity [11] = system: Hepatotoxicity; remark: listed apart in the source
Hepatotoxicity [12] = system: Hepatotoxicity; remark: listed apart in the source
Hepatotoxicity [13] = system: Hepatotoxicity; remark: listed apart in the source
Hepatotoxicity [14] = system: Hepatotoxicity; remark: listed apart in the source

CC(COc1ccccc1)NC(C)C(O)c1ccc(O)cc1 (configuration not stated) [ISOXSUPRINE]
0: HepSE_bilirubinemia (Hepatotoxicity [1]) | HepSE_cholecystitis (Hepatotoxicity [2]) | HepSE_cholelithiasis (Hepatotoxicity [3]) | HepSE_cirrhosis (Hepatotoxicity [4]) | HepSE_elevated liver function tests (Hepatotoxicity [5]) | HepSE_hepatic failure (Hepatotoxicity [6]) | HepSE_hepatic necrosis (Hepatotoxicity [7]) | HepSE_hepatitis (Hepatotoxicity [8]) | HepSE_hepatomegaly (Hepatotoxicity [9]) | HepSE_jaundice (Hepatotoxicity [10]) | HepSE_liver disease (Hepatotoxicity [11]) | HepSE_liver fatty (Hepatotoxicity [12]) | HepSE_liver function tests abnormal (Hepatotoxicity [13]) | HepSE_Combined Scores (Hepatotoxicity [14])

C[C@@H]1NC(=O)[C@@H](N)CNC(=O)[C@H](C2CCNC(=N)N2)NC(=O)/C(=C/NC(N)=O)NC(=O)[C@H](CNC(=O)CC(N)CCCN)NC1=O.N=C1NCCC([C@@H]2NC(=O)/C(=C/NC(N)=O)NC(=O)[C@H](CNC(=O)CC(N)CCCN)NC(=O)[C@H](CO)NC(=O)[C@@H](N)CNC2=O)N1 (stereo partly drawn) [CAPREOMYCIN] (H-[Dap]S[Dap](ξβ3hOrn)[ΔAla(Z-3-ureido)][X2]; lactam 1-C)
1: HepSE_liver disease (Hepatotoxicity [11]) | HepSE_Combined Scores (Hepatotoxicity [14])
0: HepSE_bilirubinemia (Hepatotoxicity [1]) | HepSE_cholecystitis (Hepatotoxicity [2]) | HepSE_cholelithiasis (Hepatotoxicity [3]) | HepSE_cirrhosis (Hepatotoxicity [4]) | HepSE_elevated liver function tests (Hepatotoxicity [5]) | HepSE_hepatic failure (Hepatotoxicity [6]) | HepSE_hepatic necrosis (Hepatotoxicity [7]) | HepSE_hepatitis (Hepatotoxicity [8]) | HepSE_hepatomegaly (Hepatotoxicity [9]) | HepSE_jaundice (Hepatotoxicity [10]) | HepSE_liver fatty (Hepatotoxicity [12]) | HepSE_liver function tests abnormal (Hepatotoxicity [13])

NC(=O)C[S+]([O-])C(c1ccccc1)c1ccccc1 (configuration not stated) [MODAFINIL]
0: HepSE_bilirubinemia (Hepatotoxicity [1]) | HepSE_cholecystitis (Hepatotoxicity [2]) | HepSE_cholelithiasis (Hepatotoxicity [3]) | HepSE_cirrhosis (Hepatotoxicity [4]) | HepSE_elevated liver function tests (Hepatotoxicity [5]) | HepSE_hepatic failure (Hepatotoxicity [6]) | HepSE_hepatic necrosis (Hepatotoxicity [7]) | HepSE_hepatitis (Hepatotoxicity [8]) | HepSE_hepatomegaly (Hepatotoxicity [9]) | HepSE_jaundice (Hepatotoxicity [10]) | HepSE_liver disease (Hepatotoxicity [11]) | HepSE_liver fatty (Hepatotoxicity [12]) | HepSE_liver function tests abnormal (Hepatotoxicity [13]) | HepSE_Combined Scores (Hepatotoxicity [14])

Oc1c(Cl)cc(Cl)c(Cl)c1Cc1c(O)c(Cl)cc(Cl)c1Cl [HEXACHLOROPHENE]
0: HepSE_bilirubinemia (Hepatotoxicity [1]) | HepSE_cholecystitis (Hepatotoxicity [2]) | HepSE_cholelithiasis (Hepatotoxicity [3]) | HepSE_cirrhosis (Hepatotoxicity [4]) | HepSE_elevated liver function tests (Hepatotoxicity [5]) | HepSE_hepatic failure (Hepatotoxicity [6]) | HepSE_hepatic necrosis (Hepatotoxicity [7]) | HepSE_hepatitis (Hepatotoxicity [8]) | HepSE_hepatomegaly (Hepatotoxicity [9]) | HepSE_jaundice (Hepatotoxicity [10]) | HepSE_liver disease (Hepatotoxicity [11]) | HepSE_liver fatty (Hepatotoxicity [12]) | HepSE_liver function tests abnormal (Hepatotoxicity [13]) | HepSE_Combined Scores (Hepatotoxicity [14])

Fc1ccc([C@@H]2CCNC[C@H]2COc2ccc3c(c2)OCO3)cc1 [PAROXETINE]
0: HepSE_cholecystitis (Hepatotoxicity [2]) | HepSE_cirrhosis (Hepatotoxicity [4]) | HepSE_hepatomegaly (Hepatotoxicity [9]) | HepSE_liver disease (Hepatotoxicity [11]) | HepSE_liver fatty (Hepatotoxicity [12])
8: HepSE_Combined Scores (Hepatotoxicity [14])
1: HepSE_bilirubinemia (Hepatotoxicity [1]) | HepSE_cholelithiasis (Hepatotoxicity [3]) | HepSE_elevated liver function tests (Hepatotoxicity [5]) | HepSE_hepatic failure (Hepatotoxicity [6]) | HepSE_hepatic necrosis (Hepatotoxicity [7]) | HepSE_hepatitis (Hepatotoxicity [8]) | HepSE_jaundice (Hepatotoxicity [10]) | HepSE_liver function tests abnormal (Hepatotoxicity [13])

CCC1(C)CC(=O)NC1=O (configuration not stated) [ETHOSUXIMIDE]
0: HepSE_bilirubinemia (Hepatotoxicity [1]) | HepSE_cholecystitis (Hepatotoxicity [2]) | HepSE_cholelithiasis (Hepatotoxicity [3]) | HepSE_cirrhosis (Hepatotoxicity [4]) | HepSE_elevated liver function tests (Hepatotoxicity [5]) | HepSE_hepatic failure (Hepatotoxicity [6]) | HepSE_hepatic necrosis (Hepatotoxicity [7]) | HepSE_hepatitis (Hepatotoxicity [8]) | HepSE_hepatomegaly (Hepatotoxicity [9]) | HepSE_jaundice (Hepatotoxicity [10]) | HepSE_liver disease (Hepatotoxicity [11]) | HepSE_liver fatty (Hepatotoxicity [12]) | HepSE_liver function tests abnormal (Hepatotoxicity [13]) | HepSE_Combined Scores (Hepatotoxicity [14])

CCOC(=O)C1(c2ccccc2)CCN(C)CC1 [MEPERIDINE]
0: HepSE_bilirubinemia (Hepatotoxicity [1]) | HepSE_cholecystitis (Hepatotoxicity [2]) | HepSE_cholelithiasis (Hepatotoxicity [3]) | HepSE_cirrhosis (Hepatotoxicity [4]) | HepSE_elevated liver function tests (Hepatotoxicity [5]) | HepSE_hepatic failure (Hepatotoxicity [6]) | HepSE_hepatic necrosis (Hepatotoxicity [7]) | HepSE_hepatitis (Hepatotoxicity [8]) | HepSE_hepatomegaly (Hepatotoxicity [9]) | HepSE_jaundice (Hepatotoxicity [10]) | HepSE_liver disease (Hepatotoxicity [11]) | HepSE_liver fatty (Hepatotoxicity [12]) | HepSE_liver function tests abnormal (Hepatotoxicity [13]) | HepSE_Combined Scores (Hepatotoxicity [14])

NS(=O)(=O)c1cc2c(cc1C(F)(F)F)NCNS2(=O)=O [HYDROFLUMETHIAZIDE]
0: HepSE_bilirubinemia (Hepatotoxicity [1]) | HepSE_cholecystitis (Hepatotoxicity [2]) | HepSE_cholelithiasis (Hepatotoxicity [3]) | HepSE_cirrhosis (Hepatotoxicity [4]) | HepSE_elevated liver function tests (Hepatotoxicity [5]) | HepSE_hepatic failure (Hepatotoxicity [6]) | HepSE_hepatic necrosis (Hepatotoxicity [7]) | HepSE_hepatitis (Hepatotoxicity [8]) | HepSE_hepatomegaly (Hepatotoxicity [9]) | HepSE_liver disease (Hepatotoxicity [11]) | HepSE_liver fatty (Hepatotoxicity [12]) | HepSE_liver function tests abnormal (Hepatotoxicity [13])
1: HepSE_jaundice (Hepatotoxicity [10]) | HepSE_Combined Scores (Hepatotoxicity [14])
